Results: patent US11351222B2, “Di-sulfide containing cell penetrating peptides and methods of making and using thereof” (Ohio State Innovation Foundation, priority 2016, dated 2022)
Bridge positions count the residues as written; N and C are the ends. Square brackets hold non-standard residues; d marks the D form. Ends that are not written are not given here. BMB = 3,5-bis(mercaptomethyl)benzoic acid scaffold; 2Nal = N[C@@H](Cc1ccc2ccccc2c1)C(=O)O

What was measured:
HeLa cells = assay: Flow cytometry cellular uptake of FITC-labeled peptides; format: cell-based; details: for mean fluorescence intensity (MFI): 5 μM FITC-labeled peptide; for mean fluorescence intensity (MFI) / higher cell entry efficiency than cFΦR4: 2 h; for higher cell entry efficiency than cFΦR4: 5 μM
Method: HeLa cells were cultured in six-well plates (5×10^5 cells per well) for 24 h. On the day of experiment, the cells were incubated with 5 μM FITC-labeled peptide in clear DMEM with 1% FBS at 37° C. for 2 h. The cells were washed with DPBS, detached from plate with 0.25% trypsin, diluted into clear DMEM containing 10% FBS, pelleted at 250 g for 5 min, washed once with DPBS and resuspended in DPBS containing 1% bovine serum albumin, and analyzed on a BD LSR II flow cytometer. Data were analyzed with Flowjo software (Tree Star).
To monitor their cellular uptake, peptides 2 and 3 were labeled with fluorescein isothiocyanate (FITC) on the side chain of a C-terminal lysine. […] Thus, bicyclic peptides 2 and 3 entered HeLa cells with 72% and 36% higher efficiencies, respectively, than cFΦR4 (SEQ ID NO.:72).
Peptides 4 and 5 were labeled with FITC at the side chain of a lysine added to their C-termini and their cellular entry was assessed by flow cytometry. […] Briefly, in the presence of an anti-glutathione-S-transferase (GST) antibody labeled with a fluorescence donor (Tb) and streptavidin labeled with a fluorescence acceptor (d2), binding of GST-NEMO to a biotinylated IKKβ fragment (amino acids 701-745) (B. Gao, et al., Biochemistry 2014, 53, 677) results in a resonance energy transfer. Addition of a NEMO inhibitor blocks the NEMO-IKKβ interaction and reduces the HTRF signal. […] IKKβ contains a phenylalanine at the same position (Phe-734). […] Thus, the phenylalanine in peptide 4 likely plays dual roles of cellular entry and NEMO binding.

NEMO-IKKβ interaction = target: T1, NEMO-IKKβ interaction (Homo sapiens, UniProt Q9Y6K9); assay: HTRF assay of the NEMO-IKKβ interaction; format: binding; details: up to 100 μM peptide, 5 mM TCEP
T1 construct: transformed with a pGEX4T3-GST-NEMO(1-196) plasmid; made in house; host or cells: Escherichia coli BL21(DE3)

[1] = system: TNFα-induced activation of NF-κB in NF-κB reporter (Luc)-HEK293 cells; assay: NF-κB luciferase assay
Method: NF-κB reporter (Luc)-HEK293 cells were seeded in 96-well microplate in 45 μL of assay medium (DMEM, 10% FBS, and 1% penicillin/streptomycin, 1500 cells per well) and cultured overnight. Five μL of NEMO inhibitor in assay medium was added to cells and the cells were incubated for 2 h. Recombinant TNFα^3 in 5 μL of assay medium was added to the wells at the final concentration of 5 ng/mL. After 4 h of incubation, 55 μL of ONE-Step luciferase assay reagent was added to each well. Luminescence was measured after 10 min of incubation using a Tecan Infinite M1000 Pro microplate reader. Luciferase activities of TNFα unstimulated and stimulated cells were recorded as AU″ and AU^+, respectively. Luciferase activities of TNFα stimulated cells after incubating with different concentrations of NEMO inhibitors were recorded as AU^pep.
The ability of the bicyclic peptides to modulate the NEMO-IKK interaction inside the cell was assessed by monitoring the TNFα-induced activation of NF-κB.

mammalian cells = details: previously reported; cited from earlier work

T1 sequence (Q9Y6K9 1-196): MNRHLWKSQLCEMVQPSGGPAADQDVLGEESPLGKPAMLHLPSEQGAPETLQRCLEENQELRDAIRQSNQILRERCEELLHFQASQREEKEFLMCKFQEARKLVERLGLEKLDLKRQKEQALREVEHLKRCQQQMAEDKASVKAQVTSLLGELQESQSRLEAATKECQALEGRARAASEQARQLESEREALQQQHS

| Substance | mean fluorescence intensity (MFI) (HeLa cells) | higher cell entry efficiency than cFΦR4 (HeLa cells; relative to cFΦR4) | inhibition of the NEMO-IKKβ interaction (NEMO-IKKβ interaction) | effect on NF-κB signaling ([1]; at 20 μM) | inhibition of NF-κB signaling ([1]; highest concentration tested (40 μM)) | MFI higher than that of cFΦR4 (HeLa cells; FITC-labeled peptide, relative to cFΦR4) | cytosolic delivery efficiency (ratio of cytosolic over extracellular cargo concentration) (mammalian cells) |
| --- | --- | --- | --- | --- | --- | --- | --- |
| 2: bicyclic model peptide with CPP motif and mock cargo SASAS on BMB scaffold (cyclo(RRRR[2Nal]FCSASASCK); linker 7-13 via BMB (inferred)) [Peptide 2] | 5180 | 72% | – | – | – | – | – |
| 3: bicyclic model peptide with CPP motif and mock cargo SASAS on BMB scaffold (cyclo(SASASCF[2Nal]RRRRCK); linker 6-13 via BMB (inferred)) [Peptide 3] | 4100 | 36% | – | – | – | – | – |
| 5: control, similar to peptide 4 but two Ala residues in place of the two Trp residues (RRRR[2Nal]FCALDASALQC; linker 7-16 via BMB; not fully specified (C-terminus, bridges)) [Peptide 5] | – | – | only minor inhibition | no significant effect | ~10% | 2 fold | – |
| Cyclo(FΦRRRRQ) [cFΦR4, reference compound] | 3020 | – | – | – | – | – | 20% |
